Assay results from ChEMBL document CHEMBL1949499, “Nicotinic acids: liver-targeted SCD inhibitors with preclinical anti-diabetic efficacy” (Bioorg Med Chem Lett, 2011).

Legend:
[1] = tested on: Mus musculus; experiment: Acute antidiabetic activity in high fat diet fed po dosed C57/BL6 mouse eDIO model assessed as increase in glucose clearance administered 1 hr prior to glucose challenge by oGTT assay; format: functional, organism-based
[2] = Plasma concentration in high sucrose/fat free diet fed C57/BL6 mouse at 100 mg/kg, po after 3 hrs; format: ADME, organism-based; set-up: dose 100 mg/kg, route oral
[3] = Drug uptake in C57/BL6 mouse cerebellum at 30 mg/kg, po after 2 hrs; format: ADME, organism-based; set-up: dose 30 mg/kg, route oral; details: read-out: Drug uptake
[4] = Plasma clearance in Sprague-Dawley rat at 10 mg/kg, po and 2 mg/kg, iv; format: ADME, organism-based
[5] = tested on: HepG2; experiment: Selectivity ratio of IC50 for human SCD1 expressed in human HepG2 cells to IC50 for rat SCD1 in Sprague-Dawley rat hepatocytes; format: cell-based
[6] = tested on: Mus musculus; experiment: Inhibition of SCD activity in high sucrose/fat free diet fed po dosed C57/BL6 mouse liver assessed as reduction in conversion of [14C]stearic acid to [14C]oleic acid; format: functional, organism-based
[7] = Drug uptake in C57/BL6 mouse kidney at 30 mg/kg, po after 6 hrs; format: ADME, organism-based; set-up: dose 30 mg/kg, route oral; details: read-out: Drug uptake
[8] = Drug uptake in C57/BL6 mouse harderian glands at 30 mg/kg, po after 24 hrs; format: ADME, organism-based, Harderian gland; set-up: dose 30 mg/kg, route oral; details: read-out: Drug uptake
[9] = Plasma clearance in C57/BL6 mouse at 10 mg/kg, po and 2 mg/kg, iv; format: ADME, organism-based
[10] = AUC in C57/BL6 mouse plasma at 10 mg/kg, po and 2 mg/kg, iv; format: ADME, organism-based
[11] = Drug uptake in C57/BL6 mouse left epididymal fat at 30 mg/kg, po after 6 hrs; format: ADME, organism-based, Epididymal fat pad; set-up: dose 30 mg/kg, route oral; details: male, read-out: Drug uptake
[12] = molecular target: T1, Acyl-CoA desaturase 1 (Rattus norvegicus, UniProt P07308); experiment: Inhibition of rat SCD1
T1 sequence (P07308 whole entry): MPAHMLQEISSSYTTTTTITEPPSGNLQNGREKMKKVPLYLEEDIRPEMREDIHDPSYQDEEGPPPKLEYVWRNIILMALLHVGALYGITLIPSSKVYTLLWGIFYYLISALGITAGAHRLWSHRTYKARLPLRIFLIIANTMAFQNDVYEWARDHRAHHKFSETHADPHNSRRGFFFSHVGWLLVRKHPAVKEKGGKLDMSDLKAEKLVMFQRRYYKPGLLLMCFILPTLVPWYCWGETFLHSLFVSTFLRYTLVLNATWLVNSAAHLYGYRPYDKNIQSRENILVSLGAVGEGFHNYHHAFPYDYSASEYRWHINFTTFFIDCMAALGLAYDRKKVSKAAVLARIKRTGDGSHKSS

[13] = Drug uptake in C57/BL6 mouse skin at 30 mg/kg, po after 2 hrs; format: ADME, organism-based, Zone of skin; set-up: dose 30 mg/kg, route oral; details: read-out: Drug uptake
[14] = Drug uptake in C57/BL6 mouse left epididymal fat at 30 mg/kg, po after 2 hrs; format: ADME, organism-based, Epididymal fat pad; set-up: dose 30 mg/kg, route oral; details: male, read-out: Drug uptake
[15] = tested on: Nucleic Acid; experiment: Ratio of drug uptake in left median liver lobe to harderian gland in C57/BL6 mouse at 30 mg/kg, po after 6 hrs; format: ADME, organism-based; set-up: dose 30 mg/kg, route oral; details: in vivo
[16] = Drug uptake in high fat diet fed C57/BL6 mouse eDIO model whole blood at 100 mg/kg, po after 3 hrs; format: ADME, organism-based; set-up: dose 100 mg/kg, route oral; details: read-out: Drug uptake
[17] = tested on: Mus musculus; experiment: Acute antidiabetic activity in high fat diet fed C57/BL6 mouse eDIO model assessed as increase in glucose clearance at 100 mg/kg, po administered 1 hr prior to glucose challenge by oGTT assay; format: functional
[18] = Half life in Sprague-Dawley rat at 10 mg/kg, po and 2 mg/kg, iv; format: ADME, organism-based; details: in vivo
[19] = Drug uptake in C57/BL6 mouse harderian glands at 30 mg/kg, po after 6 hrs; format: ADME, organism-based, Harderian gland; set-up: dose 30 mg/kg, route oral; details: read-out: Drug uptake
[20] = Drug uptake in C57/BL6 mouse cerebellum at 30 mg/kg, po after 24 hrs; format: ADME, organism-based; set-up: dose 30 mg/kg, route oral; details: read-out: Drug uptake
[21] = tested on: Mus musculus; experiment: Inhibition of SCD activity in high sucrose/fat free diet fed C57/BL6 mouse liver assessed as reduction in conversion of [14C]stearic acid to [14C]oleic acid at 100 mg/kg, po; format: functional
[22] = Plasma concentration in high sucrose/fat free diet fed C57/BL6 mouse at 30 mg/kg, po after 3 hrs; format: ADME, organism-based; set-up: dose 30 mg/kg, route oral
[23] = Drug uptake C57/BL6 in mouse left median liver lobe at 30 mg/kg, po after 6 hrs; format: ADME, organism-based; set-up: dose 30 mg/kg, route oral; details: read-out: Drug uptake
[24] = Drug uptake in C57/BL6 mouse cerebellum at 30 mg/kg, po after 6 hrs; format: ADME, organism-based; set-up: dose 30 mg/kg, route oral; details: read-out: Drug uptake
[25] = tested on: Nucleic Acid; experiment: Ratio of drug uptake in high fat diet fed C57/BL6 mouse eDIO model whole blood to high sucrose/fat free diet fed C57/BL6 mouse plasma; format: ADME; details: in vivo
[26] = Drug uptake in C57/BL6 mouse left median liver lobe at 30 mg/kg, po after 2 hrs; format: ADME, organism-based; set-up: dose 30 mg/kg, route oral; details: read-out: Drug uptake
[27] = molecular target: T2, Acyl-CoA desaturase 1 (Mus musculus, UniProt P13516); experiment: Inhibition of mouse SCD1
T2 sequence (P13516 whole entry): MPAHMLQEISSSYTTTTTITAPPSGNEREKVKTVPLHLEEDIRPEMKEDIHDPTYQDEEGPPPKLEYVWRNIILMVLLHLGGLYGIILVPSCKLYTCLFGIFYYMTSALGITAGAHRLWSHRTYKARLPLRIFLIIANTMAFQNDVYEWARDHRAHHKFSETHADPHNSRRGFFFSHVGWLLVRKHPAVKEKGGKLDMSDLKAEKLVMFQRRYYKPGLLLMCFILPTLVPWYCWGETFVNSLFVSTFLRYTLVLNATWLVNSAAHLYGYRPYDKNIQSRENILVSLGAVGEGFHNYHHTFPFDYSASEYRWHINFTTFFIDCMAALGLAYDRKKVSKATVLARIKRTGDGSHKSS

[28] = Drug uptake in C57/BL6 mouse heart at 30 mg/kg, po after 2 hrs; format: ADME, organism-based; set-up: dose 30 mg/kg, route oral; details: read-out: Drug uptake
[29] = Drug uptake in high sucrose/fat free diet fed C57/BL6 mouse liver at 100 mg/kg, po after 3 hrs; format: ADME, organism-based; set-up: dose 100 mg/kg, route oral; details: read-out: Drug uptake
[30] = Drug uptake in C57/BL6 mouse harderian glands at 30 mg/kg, po after 2 hrs; format: ADME, organism-based, Harderian gland; set-up: dose 30 mg/kg, route oral; details: read-out: Drug uptake
[31] = Drug uptake in high sucrose/fat free diet fed C57/BL6 mouse liver at 30 mg/kg, po after 3 hrs; format: ADME, organism-based; set-up: dose 30 mg/kg, route oral; details: read-out: Drug uptake
[32] = Plasma concentration in high sucrose/fat free diet fed C57/BL6 mouse at 10 mg/kg, po after 3 hrs; format: ADME, organism-based; set-up: dose 10 mg/kg, route oral
[33] = molecular target: T3, ATP-binding cassette sub-family C member 2 (Homo sapiens, UniProt Q92887); experiment: Binding affinity to MRP2 expressed in MDCK2 cells coexpressing OATP1B3; format: cell-based; details: dog, mdck-ii
[34] = tested on: Mus musculus; experiment: Inhibition of SCD activity in high sucrose/fat free diet fed C57/BL6 mouse liver assessed as reduction in conversion of [14C]stearic acid to [14C]oleic acid at 10 mg/kg, po; format: functional
[35] = Plasma concentration in C57/BL6 mouse at 30 mg/kg, po after 2 hrs; format: ADME, organism-based; set-up: dose 30 mg/kg, route oral
[36] = molecular target: T3, ATP-binding cassette sub-family C member 2; experiment: Binding affinity to MRP2 expressed in MDCK2 cells coexpressing OATP1B1; format: cell-based; details: dog, mdck-ii
[37] = Oral bioavailability in C57/BL6 mouse plasma at 10 mg/kg; format: ADME, organism-based
[38] = AUC in Sprague-Dawley rat plasma at 10 mg/kg, po and 2 mg/kg, iv; format: ADME, organism-based

T3 sequence (Q92887 whole entry): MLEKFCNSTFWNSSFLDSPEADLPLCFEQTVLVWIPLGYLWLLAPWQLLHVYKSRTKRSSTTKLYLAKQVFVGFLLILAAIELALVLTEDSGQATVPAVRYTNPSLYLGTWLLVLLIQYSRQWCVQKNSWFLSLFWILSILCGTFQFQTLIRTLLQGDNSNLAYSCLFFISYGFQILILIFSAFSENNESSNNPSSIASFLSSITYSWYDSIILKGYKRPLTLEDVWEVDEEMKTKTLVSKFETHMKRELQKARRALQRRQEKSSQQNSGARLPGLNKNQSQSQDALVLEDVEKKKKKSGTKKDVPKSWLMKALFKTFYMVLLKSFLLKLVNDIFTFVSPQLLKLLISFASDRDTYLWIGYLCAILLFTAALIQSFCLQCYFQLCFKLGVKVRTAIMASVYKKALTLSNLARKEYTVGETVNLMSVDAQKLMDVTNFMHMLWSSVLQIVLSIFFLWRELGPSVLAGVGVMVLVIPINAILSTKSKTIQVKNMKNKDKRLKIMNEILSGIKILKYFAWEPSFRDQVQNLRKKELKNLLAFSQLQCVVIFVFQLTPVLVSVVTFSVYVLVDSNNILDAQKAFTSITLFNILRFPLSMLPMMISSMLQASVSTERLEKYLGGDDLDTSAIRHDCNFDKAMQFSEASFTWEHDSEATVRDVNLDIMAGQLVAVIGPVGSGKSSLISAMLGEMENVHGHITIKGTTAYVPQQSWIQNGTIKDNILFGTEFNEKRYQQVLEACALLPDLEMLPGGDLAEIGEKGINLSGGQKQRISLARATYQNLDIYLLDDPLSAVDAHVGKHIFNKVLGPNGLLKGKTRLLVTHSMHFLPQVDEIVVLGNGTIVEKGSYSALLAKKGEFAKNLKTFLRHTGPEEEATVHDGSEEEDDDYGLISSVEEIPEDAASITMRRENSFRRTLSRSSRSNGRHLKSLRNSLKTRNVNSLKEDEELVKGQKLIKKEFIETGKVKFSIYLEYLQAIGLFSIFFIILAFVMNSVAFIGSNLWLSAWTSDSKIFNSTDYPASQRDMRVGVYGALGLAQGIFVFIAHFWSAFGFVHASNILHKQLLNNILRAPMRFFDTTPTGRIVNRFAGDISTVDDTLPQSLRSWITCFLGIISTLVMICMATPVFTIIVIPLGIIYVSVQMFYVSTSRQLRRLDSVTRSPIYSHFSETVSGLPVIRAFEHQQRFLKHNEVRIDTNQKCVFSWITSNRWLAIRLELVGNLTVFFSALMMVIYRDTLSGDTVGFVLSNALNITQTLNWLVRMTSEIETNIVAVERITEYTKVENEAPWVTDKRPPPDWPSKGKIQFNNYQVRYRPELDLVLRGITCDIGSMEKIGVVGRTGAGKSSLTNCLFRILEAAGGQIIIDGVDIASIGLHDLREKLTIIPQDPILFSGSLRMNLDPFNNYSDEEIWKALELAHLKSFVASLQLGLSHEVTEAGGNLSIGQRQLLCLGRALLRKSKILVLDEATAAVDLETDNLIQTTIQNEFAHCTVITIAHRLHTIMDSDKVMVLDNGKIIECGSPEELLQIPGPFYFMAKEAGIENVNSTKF

O=C(O)c1cncc(-c2ccc(N3CCC(Oc4cc(F)ccc4Br)CC3)nn2)c1
Activity [1]: Dose-dependent effect | concentration at 3 h [2]: 4390 nM | concentration at 2 h [3]: 10 nM | clearance [4]: 8.6 mL/min/kg | Ratio IC50 [5]: 34 | inhibition [6]: Dose-dependent effect | concentration at 6 h [7]: 1920 nM | concentration at 24 h [8]: 5 nM | clearance [9]: 81 mL/min/kg | AUC [10]: 0.3 µM·h | concentration at 6 h [11]: 111 nM | IC50 [12]: 15 nM | concentration at 2 h [13]: 170 nM | concentration at 2 h [14]: 106 nM | Ratio [15]: > 50 | concentration at 3 h [16]: 2240 nM | Activity [17]: 90% | half-life [18]: 1.4 h | concentration at 6 h [19]: 98 nM | concentration at 24 h [20]: 5 nM | inhibition in vivo at 100 mg/kg [21]: 86% | concentration at 3 h [22]: 450 nM | concentration at 6 h [23]: 5200 nM | concentration at 6 h [24]: 17 nM | Ratio [25]: < 2 | concentration at 2 h [26]: 4390 nM | IC50 [27]: 9 nM | concentration at 2 h [28]: 177 nM | concentration at 3 h [29]: 53000 nM | concentration at 2 h [30]: 389 nM | concentration at 3 h [31]: 9290 nM | concentration at 3 h [32]: 120 nM | Activity [33]: Active | inhibition in vivo at 10 mg/kg [34]: 25% | concentration at 2 h [35]: 1210 nM | Activity [36]: Active | bioavailability [37]: 8% | AUC [38]: 17.8 µM·h
